Assay results as given in patent EP4755881A1 (Wuhan Createrna Science and Technology Co., Ltd., priority 2023, dated 2025).
Read-outs that look alike come from different tables or passages of the source.

Assay: Pharmacokinetic study in rats (oral gavage and tail vein injection, plasma LC-MS/MS)
Type: in vivo
Conditions: rat; for Cmax: read-out: Cmax
Experimental: Male SPF-grade SD rats (Beijing Vital River Laboratory Animal Technology Co., Ltd.) with a body weight range of 200 to 250 g were used. After acclimatization, the rats were administered a clear solution of the compound of the present disclosure via oral gavage (Po, fasted overnight before administration with free access to water, food returned 4 hours after administration) and tail vein injection (Iv, free access to food and water throughout the administration). Blood samples were collected from the orbital venous plexus/jugular vein of rats at specified time points after administration (blood collection time points for the PO group: 0.167, 0.5, 1, 2, 4, 6, 8, and 24 h; for the IV group: 0.033, 0.167, 1, 2, 4, 6, 8, and 24 h). The concentration of compounds in plasma was detected by LC-MS/MS (AB SCIEX Qtrap4500). Data were analyzed using WinNonlin (version 5.2.1 Pharsight, Mountain View, CA) with a non-compartmental model to obtain PK parameters (including Cmax, C0, Tmax, AUClast, AUCinf, T1/2, etc.).
Table 3: Results of in vivo pharmacokinetic studies of compounds of the present disclosure in rats
The vehicle for the Po group compound was 5% DMSO + 5% ethanol + 60% PEG400 + 30% normal saline; the vehicle for the Iv group compound was 10% ethanol + 20% pure water + 70% PEG400 solution.

Cc1nc(-c2nnn(C)c2NC(=O)O[C@H](C)CC(C)(F)F)ccc1C#C[C@@H]1CC[C@H]1C(=O)O (mixture of isomers) [compound 213, trans-2-((6-(5-(((((R)-4,4-difluoropentan-2-yl)oxy)carbonyl)amino)-1-methyl-1H-1,2,3-triazol-4-yl)-2-methylpyridin-3-yl)ethynyl)cyclobutane-1-carboxylic acid]
half-life (male, SD, iv, 1 mg/kg): 10.4 h
half-life (male, SD, po, 1 mg/kg): 9.97 h
AUC(0-t) (male, SD rats, Iv, 1 mg/kg): 5000 to 10000 ng·h/mL
Cmax (male, SD rats, Iv, 1 mg/kg): 800 to 5000 ng/mL
AUC(0-t) (male, SD rats, Po, 1 mg/kg): 5000 to 10000 ng·h/mL
Cmax (male, SD rats, Po, 1 mg/kg): 200 to 800 ng/mL

CCC[C@@H](C)OC(=O)Nc1c(-c2ccc(C#C[C@@H]3C[C@H]3C(=O)O)c(C)n2)nnn1C (mixture of isomers) [compound 224, trans-2-((2-methyl-6-(1-methyl-5-(((((R)-pentan-2-yl)oxy)carbonyl)amino)-1H-1,2,3-triazol-4-yl)pyridin-3-yl)ethynyl)cyclopropane-1-carboxylic acid]
half-life (male, SD, iv, 1 mg/kg): 4.78 h
half-life (male, SD, po, 1 mg/kg): 3.76 h
AUC(0-t) (male, SD rats, Iv, 1 mg/kg): 5000 to 10000 ng·h/mL
Cmax (male, SD rats, Iv, 1 mg/kg): 800 to 5000 ng/mL
AUC(0-t) (male, SD rats, Po, 1 mg/kg): 5000 to 10000 ng·h/mL
Cmax (male, SD rats, Po, 1 mg/kg): 800 to 5000 ng/mL

Cc1nc(-c2nnn(C)c2NC(=O)OC(C)C23CC(C2)C3)ccc1C#CC1(CC(=O)O)CC1 (racemic) [compound 260]
AUC(0-t) (SD rats, Iv, 1 mg/kg): 5000 to 10000 ng·h/mL
half-life (SD rats, Iv, 1 mg/kg): 8.44 h
Cmax (SD rats, Iv, 1 mg/kg): 800 to 5000 ng/mL
AUC(0-t) (SD rats, Po, 1 mg/kg): 5000 to 10000 ng·h/mL
half-life (SD rats, Po, 1 mg/kg): 9.12 h
Cmax (SD rats, Po, 1 mg/kg): 200 to 800 ng/mL

Cc1nc(-c2nnn(C)c2COC(=O)N(C)CCC(C)(F)F)ccc1C#C[C@@H]1CCC[C@H]1C(=O)O (racemic) [compound 282, trans-2-((6-(5-((((3,3-difluorobutyl)(methyl)carbamoyl)oxy)methyl)-1-methyl-1H-1,2,3-triazol-4-yl)-2-methylpyridin-3-yl)ethynyl)cyclopentane-1-carboxylic acid]
half-life (male, SD, iv, 1 mg/kg): 6.07 h
half-life (male, SD, po, 1 mg/kg): 4.58 h
AUC(0-t) (male, SD rats, Iv, 1 mg/kg): 1200 to 3000 ng·h/mL
Cmax (male, SD rats, Iv, 1 mg/kg): 800 to 5000 ng/mL
AUC(0-t) (male, SD rats, Po, 1 mg/kg): 1200 to 3000 ng·h/mL
Cmax (male, SD rats, Po, 1 mg/kg): 200 to 800 ng/mL

Cc1nc(-c2nnn(C)c2NC(=O)OC(C)CC(C)(F)F)ccc1C#CC1(CC(=O)O)CC1 (racemic) [compound 311]
AUC(0-t) (SD rats, Iv, 1 mg/kg): 5000 to 10000 ng·h/mL
half-life (SD rats, Iv, 1 mg/kg): 9.33 h
Cmax (SD rats, Iv, 1 mg/kg): 800 to 5000 ng/mL
AUC(0-t) (SD rats, Po, 1 mg/kg): 3000 to 5000 ng·h/mL
half-life (SD rats, Po, 1 mg/kg): 8.49 h
Cmax (SD rats, Po, 1 mg/kg): 200 to 800 ng/mL

Cc1nc(-c2nnn(C)c2COC(=O)N(C)CCC(C)(F)F)ccc1C#CC1CCC1C(=O)O (racemic) [compound 359]
AUC(0-t) (in vivo, SD rats, Iv, 1 mg/kg): 1200 to 3000 ng·h/mL
Cmax (in vivo, SD rats, Iv, 1 mg/kg): 800 to 5000 ng/mL
AUC(0-t) (in vivo, SD rats, Po, 1 mg/kg): 1200 to 3000 ng·h/mL
Cmax (in vivo, SD rats, Po, 1 mg/kg): 200 to 800 ng/mL
half-life (in vivo, iv, 1 mg/kg, SD rats): 7.63 h
half-life (in vivo, po, 1 mg/kg, SD rats): 6.24 h

Cc1nc(-c2nnn(C)c2COC(=O)N(C)CC2CCC2)ccc1C#CC1CC1C(=O)O (racemic) [compound 361]
AUC(0-t) (SD rats, Iv, 1 mg/kg): 1200 to 3000 ng·h/mL
half-life (SD rats, Iv, 1 mg/kg): 3.03 h
Cmax (SD rats, Iv, 1 mg/kg): 800 to 5000 ng/mL
AUC(0-t) (SD rats, Po, 1 mg/kg): 1200 to 3000 ng·h/mL
half-life (SD rats, Po, 1 mg/kg): 2.53 h
Cmax (SD rats, Po, 1 mg/kg): 200 to 800 ng/mL

Cc1nc(-c2nnn(C)c2NC(=O)OC(C)CCCF)ccc1C#CC1(CC(=O)O)CC1 (single isomer, unassigned) [280-B]
AUC(0-t) (in vivo, SD rats, Iv, 1 mg/kg): 5000 to 10000 ng·h/mL
Cmax (in vivo, SD rats, Iv, 1 mg/kg): 800 to 5000 ng/mL
AUC(0-t) (in vivo, SD rats, Po, 3 mg/kg): 10000 to 20000 ng·h/mL
Cmax (in vivo, SD rats, Po, 3 mg/kg): 800 to 5000 ng/mL
half-life (in vivo, iv, 1 mg/kg, SD rats): 6.47 h
half-life (in vivo, po, 3 mg/kg, SD rats): 6.57 h

CCC[C@H](C)OC(=O)Nc1c(-c2ccc(C#CC3(CC(=O)O)CC3)c(C)n2)nnn1C [010-B]
AUC(0-t) (in vivo, SD rats, Iv, 1 mg/kg): 5000 to 10000 ng·h/mL
Cmax (in vivo, SD rats, Iv, 1 mg/kg): 800 to 5000 ng/mL
AUC(0-t) (in vivo, SD rats, Po, 3 mg/kg): 10000 to 20000 ng·h/mL
Cmax (in vivo, SD rats, Po, 3 mg/kg): 800 to 5000 ng/mL
half-life (in vivo, iv, 1 mg/kg, SD rats): 8.56 h
half-life (in vivo, po, 3 mg/kg, SD rats): 6.85 h

CCC(F)(F)[C@@H](C)OC(=O)Nc1c(-c2ccc(C#CC3(CC(=O)O)CC(OC)C3)c(C)n2)nnn1C (stereo partly drawn) [compound 279]
AUC(0-t) (SD rats, Iv, 1 mg/kg): 5000 to 10000 ng·h/mL
half-life (SD rats, Iv, 1 mg/kg): 5.82 h
Cmax (SD rats, Iv, 1 mg/kg): 5000 to 8000 ng/mL
AUC(0-t) (SD rats, Po, 1 mg/kg): 5000 to 10000 ng·h/mL
half-life (SD rats, Po, 1 mg/kg): 6.39 h
Cmax (SD rats, Po, 1 mg/kg): 800 to 5000 ng/mL

Cc1nc(-c2nnn(C)c2NC(=O)OC(C)CCC(F)F)ccc1C#CC1(CC(=O)O)CC1 (stereo not drawn) [compound 283, 2-(1-((6-(5-((((5,5-difluoropentan-2-yl)oxy)carbonyl)amino)-1-methyl-1H-1,2,3-triazol-4-yl)-2-methylpyridin-3-yl)ethynyl)cyclopropyl)acetic acid]
half-life (male, SD, iv, 1 mg/kg): 7.36 h
half-life (male, SD, po, 1 mg/kg): 6.9 h
AUC(0-t) (male, SD rats, Iv, 1 mg/kg): 5000 to 10000 ng·h/mL
Cmax (male, SD rats, Iv, 1 mg/kg): 800 to 5000 ng/mL
AUC(0-t) (male, SD rats, Po, 1 mg/kg): 5000 to 10000 ng·h/mL
Cmax (male, SD rats, Po, 1 mg/kg): 200 to 800 ng/mL

Cc1nc(-c2nnn(C)c2NC(=O)OC(C)C23CC(F)(C2)C3)ccc1C#CC1(CC(=O)O)CC1 (stereo not drawn) [compound 285]
AUC(0-t) (male, SD rats, Iv, 1 mg/kg): 5000 to 10000 ng·h/mL
half-life (male, SD rats, Iv, 1 mg/kg): 9.86 h
Cmax (male, SD rats, Iv, 1 mg/kg): 800 to 5000 ng/mL
AUC(0-t) (male, SD rats, Po, 1 mg/kg): 3000 to 5000 ng·h/mL
half-life (male, SD rats, Po, 1 mg/kg): 6.12 h
Cmax (male, SD rats, Po, 1 mg/kg): 200 to 800 ng/mL

Cc1nc(-c2nnn(C)c2NC(=O)OC(C)CC(C)(F)F)ccc1C#CC1CC1C(=O)O (stereo not drawn) [compound 291]
AUC(0-t) (in vivo, SD rats, Iv, 1 mg/kg): 5000 to 10000 ng·h/mL
Cmax (in vivo, SD rats, Iv, 1 mg/kg): 800 to 5000 ng/mL
AUC(0-t) (in vivo, SD rats, Po, 1 mg/kg): 3000 to 5000 ng·h/mL
Cmax (in vivo, SD rats, Po, 1 mg/kg): 800 to 5000 ng/mL
half-life (in vivo, iv, 1 mg/kg, SD rats): 4.68 h
half-life (in vivo, po, 1 mg/kg, SD rats): 5.15 h

Cc1nc(-c2nnn(C)c2NC(=O)O[C@H](C)c2ccccc2)ccc1C#C[C@@H]1C[C@H]1C(=O)O [compound 295]
half-life (male, SD, iv, 1 mg/kg): 3.46 h
half-life (male, SD, po, 1 mg/kg): 3.49 h
AUC(0-t) (male, SD rats, Iv, 1 mg/kg): 5000 to 10000 ng·h/mL
Cmax (male, SD rats, Iv, 1 mg/kg): 800 to 5000 ng/mL
AUC(0-t) (male, SD rats, Po, 1 mg/kg): 10000 to 20000 ng·h/mL
Cmax (male, SD rats, Po, 1 mg/kg): 800 to 5000 ng/mL

Cc1nc(-c2nnn(C)c2NC(=O)O[C@H](C)CC(C)(C)F)ccc1C#C[C@@H]1CC[C@H]1C(=O)O [compound 306]
AUC(0-t) (in vivo, SD rats, Iv, 1 mg/kg): 3000 to 5000 ng·h/mL
Cmax (in vivo, SD rats, Iv, 1 mg/kg): 800 to 5000 ng/mL
AUC(0-t) (in vivo, SD rats, Po, 1 mg/kg): 3000 to 5000 ng·h/mL
Cmax (in vivo, SD rats, Po, 1 mg/kg): 200 to 800 ng/mL
half-life (in vivo, iv, 1 mg/kg, SD rats): 7.66 h
half-life (in vivo, po, 1 mg/kg, SD rats): 7.2 h

Cc1nc(-c2nnn(C)c2NC(=O)O[C@H](C)CCC(C)(F)F)ccc1C#CC1(CC(=O)O)CC1 [compound 314]
AUC(0-t) (in vivo, SD rats, Iv, 1 mg/kg): 3000 to 5000 ng·h/mL
Cmax (in vivo, SD rats, Iv, 1 mg/kg): 800 to 5000 ng/mL
AUC(0-t) (in vivo, SD rats, Po, 1 mg/kg): 5000 to 10000 ng·h/mL
Cmax (in vivo, SD rats, Po, 1 mg/kg): 200 to 800 ng/mL
half-life (in vivo, iv, 1 mg/kg, SD rats): 8.42 h
half-life (in vivo, po, 1 mg/kg, SD rats): 6.41 h

CCCN(C)C(=O)OCc1c(-c2ccc(C#C[C@@H]3CCC[C@H]3C(=O)O)c(C)n2)nnn1C [compound 355]
half-life (male, SD, iv, 1 mg/kg): 6.65 h
half-life (male, SD, po, 1 mg/kg): 5.53 h
AUC(0-t) (male, SD rats, Iv, 1 mg/kg): 1200 to 3000 ng·h/mL
Cmax (male, SD rats, Iv, 1 mg/kg): 800 to 5000 ng/mL
AUC(0-t) (male, SD rats, Po, 1 mg/kg): 1200 to 3000 ng·h/mL
Cmax (male, SD rats, Po, 1 mg/kg): 200 to 800 ng/mL

CCCc1ccnc(NCc2c(-c3ccc(C#CC4(CC(=O)O)CC4)c(C)n3)nnn2C)n1 [compound 365]
AUC(0-t) (SD rats, Iv, 1 mg/kg): 1200 to 3000 ng·h/mL
half-life (SD rats, Iv, 1 mg/kg): 7.21 h
Cmax (SD rats, Iv, 1 mg/kg): 800 to 5000 ng/mL
AUC(0-t) (SD rats, Po, 1 mg/kg): 1200 to 3000 ng·h/mL
half-life (SD rats, Po, 1 mg/kg): 5.98 h
Cmax (SD rats, Po, 1 mg/kg): 200 to 800 ng/mL
